Experimental data as given in US10562878B2, “Cycloalkylamines as monoamine reuptake inhibitors” (Sunovion Pharmaceuticals Inc., priority 2006, dated 2020).
Counter-ions that a name gives are not always drawn. Like-named read-outs stand apart in the source and are kept apart here.

Columns and labels:
mice = test: Mouse tail suspension test; assay type: in vivo
[1] = biological target: T1, Norepinephrine Transporter (NET) sites in mouse brain (Mus musculus (Mouse), UniProt O55192); conditions: mice, 60 min after treatment
[2] = biological target: 5-HT Transporter (SERT) sites in mouse brain (Mus musculus (Mouse), UniProt Q60857); test: Ex vivo [3H] citalopram binding to SERT sites in mouse brain after oral dosing; conditions: mice, 60 min after treatment
[3] = biological target: DA Transporter (DAT) sites in mouse brain (Mus musculus (Mouse), UniProt Q61327); test: Ex vivo [3H] WIN 35428 binding to DAT sites in mouse brain after oral dosing; conditions: mice, 60 min after treatment; for receptor occupancy at 1 mg/kg / receptor occupancy at 3 mg/kg / receptor occupancy at 10 mg/kg / receptor occupancy at 30 mg/kg: mouse
Rats = test: Rat forced swim test; assay type: in vivo
[4] = biological target: T1, Norepinephrine Transporter (NET) sites in mouse brain; test: in vivo; conditions: po, read-out: NET % Transporter Occupancy
[5] = biological target: human dopamine transporter (Homo sapiens (Human), UniProt Q01959); test: Dopamine functional uptake assay, recombinant human transporter in CHO-K1 or HEK293 cells; assay type: cell-based; conditions: read-out: hDAT IC50
[6] = biological target: human serotonin transporter (Homo sapiens (Human), UniProt P31645); test: Serotonin functional uptake assay, recombinant human transporter in HEK-293 cells; assay type: cell-based; conditions: Human serotonin transporter uptake; read-out: hSERT IC50
Chain of human serotonin transporter (P31645 whole entry): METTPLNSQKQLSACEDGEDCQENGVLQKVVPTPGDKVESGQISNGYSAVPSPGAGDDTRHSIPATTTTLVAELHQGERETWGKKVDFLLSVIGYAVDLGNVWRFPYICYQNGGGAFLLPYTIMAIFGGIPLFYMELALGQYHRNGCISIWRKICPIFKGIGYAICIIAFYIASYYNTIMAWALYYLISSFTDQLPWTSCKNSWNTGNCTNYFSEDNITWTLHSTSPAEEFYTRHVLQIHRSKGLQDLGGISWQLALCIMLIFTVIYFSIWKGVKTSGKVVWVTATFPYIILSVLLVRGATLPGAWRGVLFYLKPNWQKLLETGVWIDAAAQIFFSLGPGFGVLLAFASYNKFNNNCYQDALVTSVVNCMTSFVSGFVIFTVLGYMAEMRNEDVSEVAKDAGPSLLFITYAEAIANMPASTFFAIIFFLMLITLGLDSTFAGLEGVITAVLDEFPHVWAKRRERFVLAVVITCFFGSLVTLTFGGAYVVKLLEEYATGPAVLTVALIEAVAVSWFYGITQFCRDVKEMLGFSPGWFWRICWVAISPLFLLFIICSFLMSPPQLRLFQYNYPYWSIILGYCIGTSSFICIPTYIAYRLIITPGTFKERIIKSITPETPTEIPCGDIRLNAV

Chain of human dopamine transporter (Q01959 whole entry): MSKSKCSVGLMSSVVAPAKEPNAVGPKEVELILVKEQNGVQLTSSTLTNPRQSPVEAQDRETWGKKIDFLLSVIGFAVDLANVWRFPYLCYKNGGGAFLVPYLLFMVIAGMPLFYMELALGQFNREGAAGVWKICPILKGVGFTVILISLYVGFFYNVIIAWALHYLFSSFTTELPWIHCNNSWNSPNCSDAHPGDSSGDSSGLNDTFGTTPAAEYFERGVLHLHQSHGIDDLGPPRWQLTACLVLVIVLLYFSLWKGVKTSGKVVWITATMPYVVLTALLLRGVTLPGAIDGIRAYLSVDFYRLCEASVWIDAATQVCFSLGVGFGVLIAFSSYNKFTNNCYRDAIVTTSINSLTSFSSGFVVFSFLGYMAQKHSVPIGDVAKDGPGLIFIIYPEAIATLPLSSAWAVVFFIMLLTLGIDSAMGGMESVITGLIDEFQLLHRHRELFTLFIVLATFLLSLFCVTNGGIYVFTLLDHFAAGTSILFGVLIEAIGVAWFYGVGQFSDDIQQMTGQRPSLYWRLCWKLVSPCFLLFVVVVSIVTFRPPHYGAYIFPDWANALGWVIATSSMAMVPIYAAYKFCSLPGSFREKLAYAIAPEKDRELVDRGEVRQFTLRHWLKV

| SMILES | Mouse Tail Suspension Mean Immobility Time ± S.E.M. (mice; 30 mg/kg PO) | NET Mean Specific Binding ± S.E.M. ([1]; 1 mg/kg PO) [dpm] | NET Mean Specific Binding ± S.E.M. ([1]; 3 mg/kg PO) [dpm] | NET Mean Specific Binding ± S.E.M. ([1]; 10 mg/kg PO) [dpm] | NET Mean Specific Binding ± S.E.M. ([1]; 30 mg/kg PO) [dpm] | receptor occupancy at 1 mg/kg ([2]; mouse, 1 mg/kg PO) [%] | Mouse Tail Suspension Mean Immobility Time ± S.E.M. (mice; 10 mg/kg PO) | DAT Mean Specific Binding ± S.E.M. ([3]; 1 mg/kg PO) [dpm] | DAT Mean Specific Binding ± S.E.M. ([3]; 3 mg/kg PO) [dpm] | DAT Mean Specific Binding ± S.E.M. ([3]; 10 mg/kg PO) [dpm] | DAT Mean Specific Binding ± S.E.M. ([3]; 30 mg/kg PO) [dpm] | receptor occupancy at 1 mg/kg ([3]; 1 mg/kg PO) [%] | receptor occupancy at 3 mg/kg ([3]; 3 mg/kg PO) [%] | receptor occupancy at 10 mg/kg ([3]; 10 mg/kg PO) [%] | receptor occupancy at 30 mg/kg ([3]; 30 mg/kg PO) [%] | Rat Forced Swim Climbing (Means ± S.E.M.) (Rats; 3 mg/kg PO) | Rat Forced Swim Immobility (Means ± S.E.M.) (Rats; 3 mg/kg PO) | Rat Forced Swim Swimming (Means ± S.E.M.) (Rats; 3 mg/kg PO) | Rat Forced Swim Climbing (Means ± S.E.M.) (Rats; 10 mg/kg PO) | Rat Forced Swim Immobility (Means ± S.E.M.) (Rats; 10 mg/kg PO) | further results |
| --- | --- | --- | --- | --- | --- | --- | --- | --- | --- | --- | --- | --- | --- | --- | --- | --- | --- | --- | --- | --- | --- |
| CN(C)C[C@]1(c2ccc3ccccc3c2)CCCC[C@H]1O (relative stereo) [164 E2, trans-2-((dimethylamino)methyl)-2-(naphthalen-2-yl)cyclohexanol] | 141.8 ± 6.0 | – | – | – | – | – | – | – | – | – | – | – | – | – | – | – | – | – | – | – | – |
| CC(N(C)C)C1(c2ccc3ccccc3c2)CCCCC1 (single isomer, unassigned) [56 E1, N,N-dimethyl-1-(1-(naphthalen-2-yl)cyclohexyl)ethanamine] | 141.9 ± 7.4 | 616 ± 50 | 368 ± 17 | 106 ± 20 | 19 ± 2 | 19 | 174.8 ± 6.1 | 41561 ± 1611 | 42127 ± 2130 | 33478 ± 1779 | 14637 ± 1567 | 5 | 4 | 23 | 67 | 7.1 ± 1.6 | 52.2 ± 1.6 | 0.3 ± 0.2 | 8.6 ± 0.9 | 50.7 ± 1.0 | SERT Mean Specific Binding ± S.E.M. ([2]; 1 mg/kg PO): 2625 ± 138 dpm; SERT Mean Specific Binding ± S.E.M. ([2]; 3 mg/kg PO): 1346 ± 109 dpm; SERT Mean Specific Binding ± S.E.M. ([2]; 10 mg/kg PO): 278 ± 42 dpm; SERT Mean Specific Binding ± S.E.M. ([2]; 30 mg/kg PO): 151 ± 60 dpm; receptor occupancy at 3 mg/kg ([2]; mouse, 3 mg/kg PO): 58%; receptor occupancy at 10 mg/kg ([2]; mouse, 10 mg/kg PO): 91%; receptor occupancy at 30 mg/kg ([2]; mouse, 30 mg/kg PO): 95%; Rat Forced Swim Swimming (Means ± S.E.M.) (Rats; 10 mg/kg PO): 0.8 ± 0.3; Rat Forced Swim Climbing (Means ± S.E.M.) (Rats; 30 mg/kg PO): 17.9 ± 2.4; Rat Forced Swim Immobility (Means ± S.E.M.) (Rats; 30 mg/kg PO): 40.4 ± 2.7; Rat Forced Swim Swimming (Means ± S.E.M.) (Rats; 30 mg/kg PO): 1.0 ± 0.4; receptor occupancy at 1 mg/kg [4]: 20%; receptor occupancy at 3 mg/kg [4]: 52%; receptor occupancy at 10 mg/kg [4]: 86%; receptor occupancy at 30 mg/kg [4]: 98% |
| CN(C)C[C@]1(c2ccc(C(F)(F)F)cc2)CCCC[C@H]1O (single isomer, unassigned) [160 E1, trans-2-((dimethylamino)methyl)-2-(4-(trifluoromethyl)phenyl)cyclohexanol] | – | – | – | – | – | – | – | – | – | – | – | – | – | – | – | – | – | – | – | – | IC50 [5]: 9.72 µM; IC50 [6]: 7.19 µM |
| CN(C)C[C@]1(c2ccc(C(F)(F)F)cc2)CCCC[C@H]1O (single isomer, unassigned) [160 E2, trans-2-((dimethylamino)methyl)-2-(4-(trifluoromethyl)phenyl)cyclohexanol] | – | – | – | – | – | – | – | – | – | – | – | – | – | – | – | – | – | – | – | – | IC50 [5]: > 10 µM; IC50 [6]: 5.09 µM |
| CN[C@H](C)C1(c2ccc(Cl)c(Cl)c2)CCCCC1 (stereo in doubt) [48 E1, 1-(1-(3,4-dichlorophenyl)cyclohexyl)-N-methylethanamine hydrochloride] | 134.5 ± 9.6 | 2111 ± 119 | 1911 ± 144 | 954 ± 115 | 346 ± 55 | -1 | 174.1 ± 5.8 | 20656 ± 1531 | 18039 ± 1265 | 9792 ± 977 | 3173 ± 541 | -1 | 11 | 52 | 84 | 7.1 ± 0.6 | 49.6 ± 1.5 | 3.7 ± 1.0 | 17.9 ± 2.5 | 35.6 ± 3.5 | Rat Forced Swim Swimming (Means ± S.E.M.) (Rats; 10 mg/kg PO): 6.5 ± 1.6; Rat Forced Swim Climbing (Means ± S.E.M.) (Rats; 30 mg/kg PO): 20.6 ± 2.9; Rat Forced Swim Immobility (Means ± S.E.M.) (Rats; 30 mg/kg PO): 26.9 ± 4.4; Rat Forced Swim Swimming (Means ± S.E.M.) (Rats; 30 mg/kg PO): 9.7 ± 1.7; receptor occupancy at 1 mg/kg [4]: 12%; receptor occupancy at 3 mg/kg [4]: 21%; receptor occupancy at 10 mg/kg [4]: 60%; receptor occupancy at 30 mg/kg [4]: 86% |
